Entries after “also recorded” stand apart in the source; their conditions may differ.
What was measured:
[1] = tested on: primary cultured airway epithelia derived from humans with CF; assay: ASL pH in primary cultured airway epithelia from CF donors; format: cell-based, human
Experimental: Airway epithelial cells were obtained from human trachea and bronchi of CF and non-CF specimens obtained from the Iowa Donor Network, either as post-mortem specimens or from tissue deemed not fit for transplant. Studies were approved by the University of Iowa Institutional Review Board. After pronase enzymatic digestion, cells were seeded onto collagen-coated semi-permeable membranes (0.33-1.12 cm^2, Corning 3470 polyester, 3460 polyester, 3413 polycarbonate) and grown at an air-liquid interface (52). Airway epithelial cell cultures were analyzed after they had differentiated and at least 14 days post-seeding.
Small diameter NuLi, CuFi, and primary cultured epithelia were used for this experiment (0.33 cm^2). The ratiometric pH indicator SNARF-conjugated dextran (Molecular Probes) was used to measure ASL pH. SNARF powder was suspended via sonication in perfluorocarbon (FC-72, Sigma) and distributed onto the apical surface. ASL pH was measured 2 hr later (3, 4, 25). SNARF was excited at 488 nm and emission was recorded at 580 nm and 640 nm using a Zeiss LSM 800 microscope at 40× water immersion for cell line cultures and a Zeiss LSM 510 microscope for primary cultures. To generate a standard curve for pH determination, SNARF was dissolved in colorless pH standards and fluorescence ratios were converted to pH.
Agents tested in this assay were first lyophilized into powder and then suspended in the appropriate volume of perfluorocarbon (FC-72, Sigma) and sonicated for 1 minute to suspend. AmBisome should not be sonicated; instead, the fine powder was suspended by vortexing.
In all experiments, ASL pH of compound-treated epithelia was measured compared the results to vehicle-treated epithelia.
For apical AmB administration, cultured airway epithelia were incubated for 30 min-48 hrs at 37° C. before measurement of ASL pH. For AmB-cholesterol complex and C35deOAmB administration, cultured airway epithelia were incubated for 48 hrs at 37° C. before measurement of ASL pH. To test the effect of […] ATPase inhibition, AmB was administered 47 hours prior to 10 mM ouabain addition, and cultured airway epithelia were incubated for an additional 1 hr at 37° C. before measurement of ASL pH. For 10 μM ivacaftor/10 μM forskolin administration, cultured airway epithelia were incubated for 2 hrs at 37° C. before measurement of ASL pH (25). For basolateral AmB administration, a 2 mM stock of AmB in DMSO was diluted 1000-fold to a final concentration of 2 μM in USG media. The basolateral media of cultured airway epithelia was replaced with the AmB-containing USG media and incubated for 48 hrs at 37° C. before measurement of ASL pH.

Staphylococcus aureus = assay: Direct killing of S. aureus by AmB alone; format: cell-based; conditions: AmB 2 μM alone vs saline
Experimental: Staphylococcus aureus-coated gold grids were used to measure antibacterial activity of airway epithelial cultures (3, 4). Small diameter primary cultured epithelia were used for this experiment (0.33 cm^2). Bacteria-coated gold TEM grids were placed onto the apical surface of airway epithelia for 1 min after 48 hours of perfluorocarbon (FC-72, Sigma), 2 μM AmB, or 2 μM C35deOAmB treatment. As controls, bacteria-coated grids were also placed in saline or AmB in FC-72 laid over saline to simulate the administration method for 1 minute. After removal, bacteria on the grids were assessed for viability using Live/Dead BacLight Bacterial Viability assay (Invitrogen). Viability was determined in 4-6 fields to determine the percentages of dead bacteria.

[2] = tested on: CuFi-1 (ΔF508/ΔF508) epithelia; assay: Ussing chamber short-circuit current response to CFTR activation; format: cell-based, human; conditions: AmB 2 μM, 48 h
Experimental: To assess the presence of membrane-expressed CFTR, differentiated cultures of NuLi and CuFi-1 epithelia grown on Corning Costar 0.4 μm 24-well plate Transwell Clear Polyester Membrane inserts were used. NuLi and CuFi-1 epithelia were treated with 20 μL of perfluorocarbon (FC-72, Sigma) vehicle or 2 μM amphotericin B (AmB) sonicated into a suspension in FC-72. After 48 hours of incubation, the epithelia were mounted in a dual-channel Ussing chamber (Warner U2500) using the culture cup insert for Transwell adapter, 6.5 mm (Warner U9924T-06) and bathed on both the apical and basolateral sides with a HCO3^− solution (120 mM NaCl, 25 mM NaHCO3, 5 mM KCl, 2 mM CaC2, 1.2 mM MgC2, 13.75 mM NaH2PO4, pH 7.0) at 37° C. and gassed with compressed air. Dextrose was added to this solution immediately prior to experiments to a final concentration of 5.6 mM. Epithelial sodium channel (ENaC) and calcium-activated chloride channel (CaCC) were inhibited by apical addition of 1 μM amiloride and 1 μM DIDS (4,4′-disothiocyanostilbene-2,2′-disulfonic acid), respectively, to achieve a baseline for permeabilization. 10 μM forskolin/100 μM IBMX (3-isobutyl-1-methylxanthine) added apically was used to activate CFTR, and 1 μM CFTRinh-172 was used to inhibit CFTR. Each successive addition of reagent was allowed approximately 10 minutes to equilibrate before the addition of the next reagent (15).

CuFi-1 epithelia = assay: Lactate dehydrogenase (LDH) cytotoxicity assay; format: cell-based, human; conditions: single AmB treatment, increasing time periods
Experimental: Small diameter CuFi-1 cultured epithelia were used for this experiment (0.33 cm^2). An LDH Cytotoxicity Assay Kit (Cayman Chemical) was used to determine if AmB is toxic to CuFi-1 airway epithelia. Prior to treatment, media was removed from the basolateral side of epithelia and replaced with 500 µL of fresh USG media. Cultured epithelia were then treated with FC-72 vehicle, 2 and 50 μM AmB administered in perfluorocarbon (FC-72, Sigma) for 48 hours, 7 days, or 28 days. 48 hours prior to the end of each experiment time frame, basolateral media was changed again and […] of 10% Triton X-100 solution was added to the apical surface to elicit maximum release. On the day of the experiment, assay reagents were prepared according to kit instructions and 500 µL of USG media was added to three empty wells in a 24-well plate for background control. Culture inserts were removed from the wells and 250 µL of LDH Reaction Solution was added to each well. The plate was then gently shaken on an orbital shaker for 30 minutes at 37° C. Absorbance was read at 490 nm using a plate reader. % cytotoxicity was calculated as follows: […]

[3] = aerosolized / nebulized; cited from earlier work

C[C@@H]1[C@H](O)[C@@H](C)/C=C/C=C/C=C/C=C/C=C/C=C/C=C/[C@H](O[C@@H]2O[C@H](C)[C@@H](O)[C@H](N)[C@@H]2O)C[C@@H]2O[C@](O)(C[C@@H](O)C[C@@H](O)[C@H](O)CC[C@@H](O)C[C@@H](O)CC(=O)O[C@H]1C)C[C@H](O)[C@H]2C(=O)O [AmB, amphotericin B]
ASL pH, apical addition ([1]; 9 donors, 2 μM, 48 h): caused an increase in ASL pH across a wide range of different genotypes; also recorded: increased ASL pH; also recorded: restores ASL pH
ASL pH, basolateral addition of AmB ([1]; AmB 2 μM basolateral, 48 h): did not increase ASL pH
average increase in ASL pH ([1]; apical AmB 2 μM): 0.2 pH units
time for which the increase in ASL pH is sustained ([1]; apical AmB 2 μM): at least 48 hours
direct antibacterial activity against S. aureus (Staphylococcus aureus): insensitive to direct killing by AmB; also recorded: does not have antibacterial activity against S. aureus
short circuit current response to forskolin/IBMX of AmB-treated epithelia [2]: did not show an increase in short circuit current in response to forskolin/IBMX; also recorded: did not respond to chemical activation of CFTR
cytotoxicity (LDH release, percent of total lysis by Triton X) (CuFi-1 epithelia): did not cause increased cytotoxicity as compared to vehicle
safety of delivery to the lungs [3]: safely delivered to the lungs in aerosolized form
